Counter-ions that a name gives are not always drawn.
Tests used:
Type in all cases: in vivo, Wistar rats
[1] = tested on: acoustic trauma induced hearing loss; assay: Distortion product otoacoustic emissions (DPOAE) amplitudes after acoustic trauma
Protocol: (§1) All experiments were performed using 7 week old male Wistar rats (CERJ, Le Genest, France) in accordance with the French Ministry of Agriculture regulations and European Community Council Directive no. 86/609/EEC, OJL 358. The rats were fed a standard diet ad libitum and maintained on a 12 h light-dark cycle.
(§2) Auditory Brainstem Reponses (ABR) and Distortion Product Otoacoustic Emissions (DPOAE) were recording using a RZ6 Auditory Workstation (Tucker-Davis Technologies, Alachua, FL, USA) with animals deeply anesthetized using 90 mg/kg ketamine and 10 mg/kg xylazine and placed on a 35° C. recirculating heating pad inside a sound attenuating cubicle (Med Associates Inc., St. Albans, VT, USA) throughout the experiment.
DPOAEs were recorded and using ER10B+ Low Noise DPOAE microphone (Etymotic Research, Inc., Elk Grove Village, IL, USA) with acoustic stimuli delivered by two calibrated MF-1 speakers in closed-field configuration (Tucker-Davis Technologies, Alachua, FL, USA). DPOAEs were recorded at fixed stimulus levels (L1=L2=70 dB SPL), with an f2/f1 ratio of 1.2. Responses were recorded at 4, 8, 16, 24 and 32 kHz.
(§3) Animals were exposed to 121 dB octave band noise (8-16 kHz) for 2 h in groups of 4 rats, placed in individual compartments of a custom built circular cage placed on a 30 cm diameter platform rotating at 3 turns/minute (Aqila Innovation, Valbonne, France). The calibrated octave band noise generated by the RZ6 SigGen software was further amplified by a Crown D-75 amplifier in bridge mode (Crown Audio, Elkhart, IN, USA) and delivered by four Beyma CP16 compression tweeters (Acustica Beyma S. L., Moncada, Valencia, Spain) positioned 39 cm above the rotating platform, each 10 cm from the platform center.
(§4) Animals were treated by intraperitoneal injection daily for 14 days beginning immediately after acoustic trauma induction and subsequently repeated every 24 hours. The setron compounds granisetron HCl, ondansetron HCl, tropisetron HCl and azasetron HCl (Tocris Bioscience, Bristol, UK) were delivered dissolved in saline solution (1.6 mL/kg) while Tacrolimus (Selleck Chemicals, Houston, TX, USA) was dissolved in solution composed of 10% ethanol-100%/10% Kolliphor EL/1% Tween 80/79% saline (1.0 mL/kg). Placebo treated animals received injections of 1.6 mL/kg saline following the same treatment schedule.
(§5) Statistical analysis was performed using two-way ANOVA (Audiometry data: frequency and treatment group. Cochleograms: normalized distance from apex and treatment group) followed by Holm-Sidak post-hoc test for multiple comparisons. Results are given as mean±SEM and a p value less than or equal to 0.05 considered significant.
(§6) Baseline line audiometry (ABR and DPOAE measures) was performed for each animal 3 days before acoustic trauma was induced. Subsequently, audiometry measures were repeated 24 h and 14 days after acoustic trauma.
(§7) To quantify and compare the difference in treatment effects between groups while taking into account individual baseline and trauma variability, the hearing loss (ABR threshold shift & DPOAE amplitude loss) at D14 relative to baseline, as well as the functional recovery of hearing from 24 h to D14 (ABR threshold shift & DPOAE amplitude loss) were determined for all treatment groups.

outer hair cells = assay: Outer hair cell loss (cytocochleograms) in cochleae fixed at D14 after acoustic trauma
Protocol: as §3, §4
After audiometry on day 14, animals were deeply anaesthetized with an intraperitoneal injection of pentobarbital (100 mg/kg). The cochleae were removed, fixed with 4% paraformaldehyde, pH 7.4, decalcified with 10% EDTA, pH 7.4 and then stained with myosin VIIa 1/1000. […] The mean loss of OHCs per group was subsequently calculated as a function of normalized distance from the apex in bins of 2.5% of the total length, using the total length of each histological specimen. Cell counts could reliably be obtained for up to 90% of the total distance from the apex (corresponding to the tonotopic region up to from 0 kHz to ~50 kHz in rat, Viberg & Canlon 2004), while the last 10% was too variable due to damage incurred during dissection.
as §5
To further support the conclusions from the functional audiometry data, the loss of outer hair cells in four treatment group was determined by constructing cytocochleograms from histological preparations of cochleae fixed after audiometry on day 14.

[2] = tested on: acoustic trauma induced hearing loss; assay: Auditory brainstem response (ABR) thresholds after acoustic trauma
Protocol: as §1, §2
For ABR recordings, three stainless steel needle electrodes were placed subdermally over the vertex, the right mastoid and right hind leg of each animal. Tone-pips (5 msec duration presented at a rate of 21/s) at 8, 16 and 24 kHz were delivered to the right ear using a calibrated MF-1 speaker in closed-field configuration (Tucker-Davis Technologies, Alachua, FL, USA) at attenuating intensity until no reproducible response could be recorded. Close to the ABR threshold, the responses to 1000 acoustic stimuli in 5 dB steps were averaged. Responses were low-pass filtered at 3 kHz.
as §3, §4, §5, §6, §7

[3] = day 14, i.p. daily for 14 days after acoustic trauma
[4] = i.p. daily for 14 days after acoustic trauma, same doses as E4

For CN1C(=O)COc2c(C(=O)NC3CN4CCC3CC4)cc(Cl)cc21 (stereo not shown) [azasetron HCl, N-(1-azabicyclo[2.2.2]octan-8-yl)-6-chloro-4-methyl-3-oxo-1,4-benzoxazine-8-carboxamide], the “reduction of DPOAE amplitudes loss compared to placebo treatment” value [1, 3] was ~ 60%, the “DPOAE amplitude loss from baseline to day 14 compared to placebo” value [1, 4] was “significantly reduced loss of DPOAE amplitudes” and the “recovery of DPOAE amplitudes from 24 h post trauma to day 14 compared to placebo” value [1, 4] was “significantly improved recovery of DPOAE amplitudes”. For the same compound, the “mean loss of outer hair cells compared to placebo” value (outer hair cells; cochleae fixed after audiometry on day 14) was “significantly lower mean loss”, the “reduction of mean outer hair cell loss compared to placebo treatment” value (outer hair cells; cochleae fixed at day 14) was 50-75% and the “reduction of ABR threshold shifts compared to placebo treatment” value [2, 3] was 35-60%. For the same compound, the “ABR threshold recovery from 24 h to day 14 compared to placebo” value [2, 4] was “better ABR threshold recovery”, the “hearing outcomes (ABR thresholds and DPOAE amplitudes) at 14 days after acoustic trauma compared to placebo” value [2, 4] was “better hearing outcomes across all frequencies” and the “ABR threshold shift from baseline to day 14 compared to placebo” value ([2]; i.p. daily for 14 days from immediately after 121 dB trauma, azasetron HCl 4.22, ondansetron HCl 4, tropisetron HCl 3.5, granisetron HCl 3.8, Tacrolimus 1.5 mg/kg) was “significantly lower ABR threshold shifts”. For the same compound, the “ABR threshold improvement graded by typical clinical audiological criteria (Furuhashi et al. 2002)” value ([2]; placebo group only "slight improvement") was “marked improvement to complete recovery”.

From US12702671B2, “Calcineurin inhibitors of the setron family for the treatment of hearing loss” (SENSORION, priority 2015, dated 2026)
